Measurements published in the NIST ThermoML archive (doi:10.1016/j.jct.2009.07.017).
± gives the expanded uncertainty stated by the source.

Tests used:
[1] = 298.15 K; 101.33 kPa; Liquid; Vibrating tube method
[2] = refractive index (Na D-line) (dimensionless); details: 298.15 K; 101.33 kPa; Liquid; Standard Abbe refractometry
[3] = xn = mol fraction of the nth substance listed; details: 101.3 kPa, Liquid, Vibrating tube method

With `CCOS(=O)(=O)[O-].CC[n+]1cccc(C)c1` [1-ethyl-3-methylpyridinium ethylsulfate] the mass density [1] was 1219.61 ± 0.42 kg/m3 and the refractive index [2] was 1.50591 ± 0.00037.
In the case of `c1ccccc1` [benzene] + CCCCCCCCC, the mass density ([3]; 283.15 K, x2 = 0) is reported as 889.51 ± 0.1 kg/m3 and the mass density ([3]; 298.15 K, x2 = 0) is reported as 873.57 ± 0.1 kg/m3.
`c1ccccc1` [benzene] + CCCCCCCC gave a mass density ([3]; 283.15 K, x2 = 0) of 889.51 ± 0.1 kg/m3 and a mass density ([3]; 298.15 K, x2 = 0) of 873.57 ± 0.1 kg/m3.
Work on `CCCCCCCCC` [nonane] + c1ccccc1 yielded a mass density ([3]; 283.15 K, x1 = 0.0982) of 856.81 ± 0.13 kg/m3, a mass density ([3]; 283.15 K, x1 = 0.1996) of 829.82 ± 0.13 kg/m3 and a mass density ([3]; 283.15 K, x1 = 0.304) of 807.64 ± 0.14 kg/m3. It also gave a mass density ([3]; 283.15 K, x1 = 0.4001) of 790.32 ± 0.15 kg/m3, a mass density ([3]; 283.15 K, x1 = 0.497) of 775.74 ± 0.17 kg/m3 and a mass density ([3]; 283.15 K, x1 = 0.5995) of 762.31 ± 0.18 kg/m3. The mass density ([3]; 283.15 K, x1 = 0.6989) was 751.53 ± 0.2 kg/m3, the mass density ([3]; 283.15 K, x1 = 0.7959) was 741.95 ± 0.21 kg/m3 and the mass density ([3]; 283.15 K, x1 = 0.8928) was 733.72 ± 0.23 kg/m3. It also gave a mass density ([3]; 283.15 K, x1 = 1) of 725.51 ± 0.24 kg/m3, a mass density ([3]; 298.15 K, x1 = 0.0982) of 841.94 ± 0.13 kg/m3 and a mass density ([3]; 298.15 K, x1 = 0.1996) of 815.82 ± 0.13 kg/m3. The mass density ([3]; 298.15 K, x1 = 0.304) was 794.17 ± 0.14 kg/m3, the mass density ([3]; 298.15 K, x1 = 0.4001) was 777.31 ± 0.16 kg/m3 and the mass density ([3]; 298.15 K, x1 = 0.497) was 763.05 ± 0.17 kg/m3. The mass density ([3]; 298.15 K, x1 = 0.5995) was 750.12 ± 0.18 kg/m3, the mass density ([3]; 298.15 K, x1 = 0.6989) was 739.44 ± 0.2 kg/m3 and the mass density ([3]; 298.15 K, x1 = 0.7959) was 730.03 ± 0.21 kg/m3. The mass density ([3]; 298.15 K, x1 = 0.8928) was 721.91 ± 0.23 kg/m3 and the mass density ([3]; 298.15 K, x1 = 1) was 713.99 ± 0.25 kg/m3.
`CCCCCCCC` [octane] + c1ccccc1 showed a mass density ([3]; 283.15 K, x1 = 0.1024) of 855.9 ± 0.13 kg/m3, a mass density ([3]; 283.15 K, x1 = 0.2013) of 828.82 ± 0.13 kg/m3 and a mass density ([3]; 283.15 K, x1 = 0.3006) of 806.11 ± 0.13 kg/m3. For the same molecule, the mass density ([3]; 283.15 K, x1 = 0.4234) was 782.24 ± 0.14 kg/m3, the mass density ([3]; 283.15 K, x1 = 0.5001) was 769.31 ± 0.14 kg/m3 and the mass density ([3]; 283.15 K, x1 = 0.5985) was 754.84 ± 0.15 kg/m3. It also gave a mass density ([3]; 283.15 K, x1 = 0.6982) of 741.81 ± 0.16 kg/m3, a mass density ([3]; 283.15 K, x1 = 0.7972) of 730.25 ± 0.16 kg/m3 and a mass density ([3]; 283.15 K, x1 = 0.9031) of 719.42 ± 0.17 kg/m3. For the same molecule, the mass density ([3]; 283.15 K, x1 = 1) was 710.5 ± 0.17 kg/m3, the mass density ([3]; 298.15 K, x1 = 0.1024) was 840.84 ± 0.13 kg/m3 and the mass density ([3]; 298.15 K, x1 = 0.2013) was 814.43 ± 0.13 kg/m3. It also gave a mass density ([3]; 298.15 K, x1 = 0.3006) of 792.21 ± 0.13 kg/m3, a mass density ([3]; 298.15 K, x1 = 0.4234) of 768.91 ± 0.14 kg/m3 and a mass density ([3]; 298.15 K, x1 = 0.5001) of 756.54 ± 0.15 kg/m3. It also gave a mass density ([3]; 298.15 K, x1 = 0.5985) of 742.05 ± 0.15 kg/m3, a mass density ([3]; 298.15 K, x1 = 0.6982) of 729.34 ± 0.16 kg/m3 and a mass density ([3]; 298.15 K, x1 = 0.7972) of 718.02 ± 0.17 kg/m3. For the same molecule, the mass density ([3]; 298.15 K, x1 = 0.9031) was 707.31 ± 0.17 kg/m3 and the mass density ([3]; 298.15 K, x1 = 1) was 698.6 ± 0.18 kg/m3.
